This passage reports Activity and Kd results from ChEMBL document CHEMBL5113476, “The protective effects of natural product tunicatachalcone against neuroinflammation via targeting RIPK2 in microglia BV-2 cells stimulated by LPS” (Bioorg Med Chem, 2022).

The source made the active and inactive calls. The calls are words filed in the database; no cut-off is given here.

Data set [1] has as its target Receptor-interacting serine/threonine-protein kinase 2 (Mus musculus) (UniProt P58801). Put plainly: Binding affinity to RIPK2 in mouse BV-2 cells measured by Cellular thermal shift assay (CETSA). In kind it is cell-based.
In data set [2] the test system is BV-2. Put plainly: Anti-neuroinflammatory activity in mouse BV-2 cells assessed as reduction in LPS-stimulated IL-6 production at 5 to 20 uM measured after 8 hrs by ELISA. The note with it: dose 5-20 µM, DDE = dose-dependent effect. It is filed as functional, cell-based.
For data set [3], the system named is BV-2. Put plainly: Anti-neuroinflammatory activity in mouse BV-2 cells assessed as inhibition of LPS-induced NO production at 5 to 20 uM measured after 24 hrs. In kind it is functional, cell-based. The note with it: dose 5-20 µM, DDE = dose-dependent effect.
Data set [4] deals with T1, Receptor-interacting serine/threonine-protein kinase 2 (Homo sapiens, UniProt O43353). Put plainly: Binding affinity to recombinant RIPK2 (unknown origin) measured by surface plasmon resonance analysis.
T1 sequence (O43353 whole entry): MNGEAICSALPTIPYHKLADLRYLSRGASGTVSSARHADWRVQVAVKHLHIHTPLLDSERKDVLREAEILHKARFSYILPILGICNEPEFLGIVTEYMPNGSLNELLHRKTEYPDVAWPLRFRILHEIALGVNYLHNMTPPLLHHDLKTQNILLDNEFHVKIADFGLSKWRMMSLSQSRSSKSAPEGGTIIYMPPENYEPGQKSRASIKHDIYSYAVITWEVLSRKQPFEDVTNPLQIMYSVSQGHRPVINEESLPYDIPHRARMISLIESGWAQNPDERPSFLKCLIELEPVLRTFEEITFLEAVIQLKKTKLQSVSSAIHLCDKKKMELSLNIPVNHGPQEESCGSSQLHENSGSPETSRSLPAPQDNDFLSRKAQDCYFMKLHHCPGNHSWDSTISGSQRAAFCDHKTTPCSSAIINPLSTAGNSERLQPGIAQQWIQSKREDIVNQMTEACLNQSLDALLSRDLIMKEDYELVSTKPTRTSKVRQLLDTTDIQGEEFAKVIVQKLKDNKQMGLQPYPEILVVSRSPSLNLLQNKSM
The subject of data set [5] is BV-2. Put plainly: Cytotoxicity against mouse BV-2 cells at 12.5 to 50 uM measured after 24 hrs by MTT assay. It is filed as toxicity, cell-based. As to conditions: bv-2, 24 h, dose 12.5-50 µM. (In general: Tetrazolium dyes change colour on reduction, which living cells bring about.)
Data set [6] has as its system BV-2. Put plainly: Anti-neuroinflammatory activity in mouse BV-2 cells assessed as reduction in LPS-stimulated TNF-alpha production at 5 to 20 uM measured after 4 hrs by ELISA. In kind it is functional, cell-based. As to conditions: dose 5-20 µM, DDE = dose-dependent effect.
Data set [7] concerns the target T1, Receptor-interacting serine/threonine-protein kinase 2. As to the kind of experiment: Binding affinity to recombinant RIPK2 (unknown origin) measured by microscale thermophoresis (MST) assay. Background: Microscale thermophoresis detects binding through changes in fluorescence in a small temperature gradient.

Receptor-interacting serine/threonine-protein kinase 2 (Mus musculus), sequence (P58801 whole entry): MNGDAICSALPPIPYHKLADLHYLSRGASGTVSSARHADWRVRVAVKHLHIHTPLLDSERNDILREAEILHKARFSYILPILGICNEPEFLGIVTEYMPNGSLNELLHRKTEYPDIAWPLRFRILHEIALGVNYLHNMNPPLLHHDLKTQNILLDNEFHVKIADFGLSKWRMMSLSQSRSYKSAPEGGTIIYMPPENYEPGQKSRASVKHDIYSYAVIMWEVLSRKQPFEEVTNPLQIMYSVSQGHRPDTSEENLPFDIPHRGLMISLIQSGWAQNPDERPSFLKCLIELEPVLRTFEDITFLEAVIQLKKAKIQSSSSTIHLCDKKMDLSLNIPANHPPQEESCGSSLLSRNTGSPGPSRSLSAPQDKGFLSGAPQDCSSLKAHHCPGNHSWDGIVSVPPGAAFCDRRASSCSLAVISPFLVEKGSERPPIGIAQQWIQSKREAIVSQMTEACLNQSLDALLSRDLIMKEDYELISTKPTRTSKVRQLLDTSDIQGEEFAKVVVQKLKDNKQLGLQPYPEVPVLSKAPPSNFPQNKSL

Broadly, the Kd is the free concentration of one partner at which half of the binding sites on the other are occupied at equilibrium, for simple one-to-one binding. Take `COC1=CC(=O)C(CC=C(C)C)(CC=C(C)C)C(=O)/C1=C(O)/C=C/c1ccccc1`: the outcome in data set [1] was Active. The Activity entry in the data set with BV-2 [2] was “Dde”; in the data set on BV-2 [3] it was “Dde”; with BV-2 [5] it was “Non-Toxic”; in the data set on BV-2 [6], “Dde”. Besides, the Kd in data set [4] was 5.36 µM; in data set [7], 1 µM.
